From US6525028B1, “Immunoeffector compounds” (Corixa Corporation, priority 2002, dated 2003)
“Also recorded” adds a separate entry of the source. Structures can show the parent of a compound that is named as a salt.

Key:
[1] = Rabbit pyrogen test; format: in vivo, rabbits; settings: for Pyrogenicity (total rise of 3 rabbits): total rise of 3 rabbits following i.v. 10 μg/Kg dose, solubilized in 10% EtOH/WFI, diluted with 5% dextrose in water
Excerpt: In an effort to obtain an immunostimulant that has low pyrogenicity, synthetic molecules have been prepared which share structural similarities with the MPLO immunostimulant. These novel molecules which are collectively called aminoalkyl glucosaminide phosphates (AGPs), consist of an acylated […] moiety linked to an acylated aminoalkyl group (Johnson et al. (1999) Bioorg. Med. Chem. Lett. 9: 2273-2278; PCTAWO98/50399 and references therein). […] The substitution of different chemical moieties within the aminoalkyl structures was designed into the AGPs in anticipation of optimizing stability and solubility properties. Thus the AGPs can be broadly separated into several families based on the structure of their aminoalkyl groups. After initial biological evaluation, it became apparent that the aminoalkyl motifs could dramatically affect the pyrogenic properties of the AGPs (see U.S. patent application Ser. No. 09/074,720 filed May 7, 1998, and U.S. Pat. Nos. 6,113,918 and 6,303,347). As part of the initial screening process of the synthetic adjuvant compounds, rabbit pyrogenicity data was determined. […] Here we report on studies of the adjuvant properties of a class of AGPs which induce minimal activity in both the rabbit pyrogen test and the ex vivo cytokine assay.

[2] = test system: HBsAg (Hepatitis B Surface Antigen); test: Adjuvant activity towards HBsAg, serum titers by ELISA (Example 4); format: in vivo, BALB/c mice; settings: for Serum Titers IgG / Serum Titers IgG1 / Serum Titers IgG2a / Serum Titers IgG2b: s.c. 2 μg HBsAg + 20 μg adjuvant day 0 and 21, pooled sera (5 mice/group) 21 days post-secondary
Protocol: Vaccines were prepared by mixing the adjuvant-containing TEoA (triethanolamine) formulations with recombinant HBsAg. Titers to HBsAg were determined by ELISA from pooled sera (5 mice/group) collected 21 days post-secondary vaccination (Table 1). The nonimmune controls were not vaccinated.

[3] = test system: HBsAg; test: Adjuvant activity towards HBsAg, IgG1 and IgG2a isotype titers by ELISA (Example 6); format: in vivo, BALB/c mice; settings: for Serum Titers IgG1 / Serum Titers IgG2a: s.c. 2.0 μg HBsAg + 25 μg adjuvant day 0 and 21, pooled sera 21 days post secondary; for titers to HBsAg, in words: versus control group receiving antigen in PBS / positive control MPL
Protocol: Groups of BALB/c mice injected subcutaneous with 2.0 μg HBsAg(Rhein Americana, & Rhein Biotech) ±25 μg adjuvant (MPLO immunostinulant orCompound II) on day 0 and day 21. IgG1 and IgG2a isotype titers to HBsAg were determined by ELISA from pooled sera collected 21 days post secondary (Table 3). The nonimmune controls were not vaccinated.

[4] = test system: TNF-α; test: Ex vivo cytokine induction, TNF-α by sandwich ELISA (Example 8); format: cell-based; settings: human blood cells, 4 hr at 37° C.
Protocol: (§1) The effects of Compound II on the elaboration of TNF-α and IL-1β was measured under ex vivo conditions on human peripheral blood mononuclear cells. MPL® immunostimulant and Compound II were formulated in aqueous solutions of 0.2% TEoA/WFI.
(§2) Human whole blood was used to evaluate the ability of glycolipids (AGPS) to induce proinflammatory cytokines. Human whole blood is collected into heparinized tubes and 0.45 ml of whole blood is admixed with 0.05 ml phosphate buffered saline (PBS, pH 7.4) containing the glycolipid (i.e., the test compounds). The tubes are incubated for 4 hr at 37° C. on a shaker apparatus. The samples are then diluted with 1.5 ml sterile PBS and centrifuged. The supernatants are removed and analyzed for […] TNF-α and IL-1β by sandwich ELISA using R&D Systems' Quantikine immunoassay kits for human TNF-α and IL-1β.

[5] = test system: IL-1β; test: Ex vivo cytokine induction, IL-1β by sandwich ELISA (Example 8); format: cell-based, human; settings: for relative induction of IL-1β: level induced with MPL immunostimulant assigned a value of 1
Protocol: as §1, §2

[6] = test system: hemagglutinin protein in FluZone influenza vaccine; test: Adjuvant activity towards hemagglutinin protein in FluZone influenza vaccine, FluZone ELISA (Example 5); settings: for Serum Titers IgG / Serum Titers IgG1 / Serum Titers IgG2a / Serum Titers IgG2b: s.c. 0.2 μg hemagglutinin in FluZone + 20 μg adjuvant day 0 and 14, pooled sera of 5 mice 14 days post secondary
Protocol: Groups of BALB/c mice (Jackson Laboratories Bar Harbor, Me.) 6-8 weeks old were injected subcutaneous with 0.2 μg hemagglutinin protein in FluZone influenza vaccine (Connaught Laboratories, Swiftwater, Pa.) ±20 μg adjuvant (MPL® immunostimulant orCompound II) on day 0 and day 14. […] The nonimmune controls were not vaccinated. The initial dilutions used on sera from test groups was 1:1600.

[7] = test system: Inducible Nitric Oxide Synthase (iNOS); test: iNOS induction in IFN-γ primed J774 murine macrophages, Greiss reagent nitrite release (Example 9); format: cell-based; settings: IFN-γ primed J774 cells
Protocol: This example illustrates the effects of various glycolipids on iNOS induction in J774 murine macrophages. The murine macrophage cell line J774 can be primed by IFN-γ in vitro and is very responsive to subsequent LPS stimulation of iNOS upregulation as measured by a standard Greiss reagent ELISA assay procedure. The assay utilizes J774 cells seeded at 1×10^6/mL with 30 mL/flask and with IFN-γ added at 100 units/mL for 16-24 hrs. Cells are then harvested and washed and resuspended at 2×10^5/well in a 96-well plate and allowed to adhere. Glycolipid compounds are serially diluted into the wells for a test group and the resulting cultures are incubated for another 36-40 hrs before culture supernatants are collected from Greiss reagent analysis of nitrite release (Green et al. (1982) Anal. Biochem. 126: 131-138). Nitrite content closely parallels iNOS function.
Potency was determined as the concentration (ng/mL) of glycolipid in culture capable of inducing one-half maximal induction of nitrite (ED50). The lower the ED50 number, the greater the potency for iNOS induction. The ED50 was cacluated according to methods set out in Johnson et al., (1999) J Med Chem. 42: 4640-4649.

[8] = cited from earlier work
[9] = versus control sera receiving antigen alone

| Compound | Pyrogenicity (total rise of 3 rabbits) [1] | Serum Titers IgG [2] | Serum Titers IgG1 [2] | Serum Titers IgG2a [2] | Serum Titers IgG2b [2] | Serum Titers IgG1 [3] | Serum Titers IgG2a [3] | titers to HBsAg, in words [3] | relative induction of IL-1β [5] | Serum Titers IgG [6] | Serum Titers IgG1 [6] | Serum Titers IgG2a [6] | Serum Titers IgG2b [6] | also measured |
| --- | --- | --- | --- | --- | --- | --- | --- | --- | --- | --- | --- | --- | --- | --- |
| CCCCCCCCCCCCCC(=O)O[C@H](CCCCCCCCCCC)CC(=O)N[C@H]1[C@H](OC[C@@H]2CCCN2C(=O)C[C@@H](CCCCCCCCCCC)OC(=O)CCCCCCCCCCCCC)O[C@H](CO)[C@@H](OP(=O)(O)O)[C@@H]1OC(=O)C[C@@H](CCCCCCCCCCC)OC(=O)CCCCCCCCCCCCC [Compound II, N-[(R)-3-tetradecanoyloxytetradecanoyl]-(S)-2-pyrrolidinylmethyl 2-deoxy-4-O-phosphono-2-[(R)-3-tetradecanoyloxytetradecanoylamino]-3-O-[(R)-3-tetradecanoyloxytetradecanoyl]-β-D-glucopyranoside triethylammonium salt] | 0.3 °C | 409,600 | 204,800 | 409,600 | 51,200 | 32,000 | 2,048,000 | increased titers compared to the control group | ≤ 0.05 | 51,200 | 102,400 | 25,600 | 6400 | fever response in the rabbit pyrogen test, in words ([1]; i.v. 10 μg/kg): apparent lack of fever; anti-HBsAg responses (serum titers), in words [2, 9]: significantly higher than control sera receiving antigen alone; induction of TNF-α, in words ([4]; Compound II at 1, 5 and 10 μg/ml): did not produce levels of TNF-α that could be detected; also recorded: without inducing detectable levels; induction of IL-1β, in words ([5]; ex vivo, human blood cells, 4 hr at 37° C., Compound II at 1, 5 and 10 μg/ml): did not produce detectable levels of IL-1β; also recorded: without inducing detectable levels; titers to FluZone, in words [6, 9]: significantly higher than control sera receiving antigen alone |
| Monophosphoryl lipid A [MPL® immunostimulant, reference compound] | 2-3 °C | 409,600 | 204,800 | 204,800 | 51,200 | 128,000 | 1,024,000 |  | 1 | 102,400 | 102,400 | 25,600 | 12,800 | concentration effective at inducing TNF-α [4]: 100 to 10,000 ng/mL; iNOS induction / nitrite elaboration, in words [7]: high levels of nitrite elaboration; dose that can be safely administered to humans ([8]; humans): at least 20 μg/kg; dose levels at which increases in temperature, flu-like symptoms, increasing heart rate and modest decreases in blood pressure can occur ([8]; some patients): ≥ 0.01 mg/kg |
| N-[(R)-3-tetradecanoyloxytetradecanoyl]-(S)-2-pyrrolidinylmethyl 2-deoxy-4-O-phosphono-2-[(R)-3-tetradecanoyloxytetradecanoylamino]-3-O-[(R)-3-tetradecanoyloxytetradecanoyl]-β-D-glucopyranoside triethylammonium salt [Compound II] |  |  |  |  |  |  |  | titers equivalent to the positive controls |  |  |  |  |  |  |
